These compounds were tested on foxtail, giant (giant foxtail, Setaria faberii) (assay: Test A preemergence, giant foxtail). Conditions: 125 g ai/ha, visual rating after approx. 10 d, 0 to 100 scale, 0 no effect, 100 complete control.
Format: in vivo
Description: (§1) Seeds of plant species selected from barnyardgrass (Echinochloa crus-galli), crabgrass (large crabgrass, Digitaria sanguinalis), kochia (Kochia scoparia), ragweed (common ragweed, Ambrosia elatior), morningglory (Ipomoea spp.), velvetleaf (Abutilon theophrasti), ryegrass, Italian (Italian ryegrass, Lolium multiflorum), foxtail, giant (giant foxtail, Setaria faberii), wheat (Triticum aestivum), corn (Zea mays), and pigweed (Amaranthus retroflexus), were planted into a blend of loam soil and sand and treated preemergence with a directed soil spray using test chemicals formulated in a non-phytotoxic solvent mixture which included a surfactant. At the same time, plants selected from these crop and weed species and also blackgrass (Alopecurus myosuroides), and galium (catchweed bedstraw, Galium aparine), were planted in pots containing the same blend of loam soil and sand and treated with postemergence applications of test chemicals formulated in the same manner. Plants ranged in height from 2 to 10 cm and were in the one- to two-leaf stage for the postemergence treatment. Treated plants and untreated controls were maintained in a greenhouse for approximately 10 d, after which time all treated plants were compared to untreated controls and visually evaluated for injury. Plant response ratings, summarized in Table A, are based on a 0 to 100 scale where 0 is no effect and 100 is complete control. A dash (-) response means no test result.

| Structure (SMILES) | Plant response rating, Foxtail, Giant |
| --- | --- |
| O=C(Nc1ccccc1C(F)(F)F)C1C(=O)OCC1c1ccc(C(F)(F)F)cc1 (racemic) [Compound 9] | 30 |

Same assay, conditions: 500 g ai/ha, visual rating after approx. 10 d, 0 to 100 scale, 0 no effect, 100 complete control

| Structure (SMILES) | Plant response rating, Foxtail, Giant |
| --- | --- |
| O=C(Nc1ccccc1C(F)(F)F)C1C(=O)OCC1c1ccc(C(F)(F)F)cc1 (racemic) [Compound 9] | 80 |

These compounds were tested on barnyardgrass (Echinochloa crus-galli) (assay: Test A preemergence, barnyardgrass). Conditions: 125 g ai/ha, visual rating after approx. 10 d, 0 to 100 scale, 0 no effect, 100 complete control.
Format: in vivo
Description: as §1

| Structure (SMILES) | Plant response rating, Barnyardgrass |
| --- | --- |
| O=C(Nc1ccccc1C(F)(F)F)C1C(=O)OCC1c1ccc(C(F)(F)F)cc1 (racemic) [Compound 9] | 0 |

Same assay, conditions: 500 g ai/ha, visual rating after approx. 10 d, 0 to 100 scale, 0 no effect, 100 complete control

| Structure (SMILES) | Plant response rating, Barnyardgrass |
| --- | --- |
| O=C(Nc1ccccc1C(F)(F)F)C1C(=O)OCC1c1ccc(C(F)(F)F)cc1 (racemic) [Compound 9] | 0 |

The compounds below were run on rice (Oryza sativa) (assay: Test B flooded paddy test, rice). Conditions: 250 g ai/ha; applied to paddy water at 2-leaf stage; 13 to 15 d; scale 0 no effect to 100 complete control.
Format: in vivo
Procedure: (§2) Plant species in the flooded paddy test selected from rice (Oryza sativa), sedge, umbrella (small-flower umbrella sedge, Cyperus difformis), ducksalad (Heteranthera limosa), and barnyardgrass (Echinochloa crus-galli) were grown to the 2-leaf stage for testing. At time of treatment, test pots were flooded to 3 cm above the soil surface, treated by application of test compounds directly to the paddy water, and then maintained at that water depth for the duration of the test. Treated plants and controls were maintained in a greenhouse for 13 to 15 d, after which time all species were compared to controls and visually evaluated. Plant response ratings, summarized in Table B, are based on a scale of 0 to 100 where 0 is no effect and 100 is complete control. A dash (-) response means no test result.

| Structure (SMILES) | Plant response rating, Flood, Rice |
| --- | --- |
| O=C(Nc1ccccc1C(F)(F)F)C1C(=O)OCC1c1ccc(C(F)(F)F)cc1 (racemic) [Compound 9] | 0 |

Same assay, conditions: 1000 g ai/ha; applied to paddy water at 2-leaf stage; 13 to 15 d; scale 0 no effect to 100 complete control

| Structure (SMILES) | Plant response rating, Flood, Rice |
| --- | --- |
| O=C(Nc1ccccc1C(F)(F)F)C1C(=O)OCC1c1ccc(C(F)(F)F)cc1 (racemic) [Compound 9] | 0 |

Each compound was assayed on ragweed (common ragweed, Ambrosia elatior) (assay: Test A preemergence, ragweed). Conditions: 125 g ai/ha, visual rating after approx. 10 d, 0 to 100 scale, 0 no effect, 100 complete control.
Format: in vivo
Description: as §1

| Structure (SMILES) | Plant response rating, Ragweed |
| --- | --- |
| O=C(Nc1ccccc1C(F)(F)F)C1C(=O)OCC1c1ccc(C(F)(F)F)cc1 (racemic) [Compound 9] | 0 |

Same assay, conditions: 500 g ai/ha, visual rating after approx. 10 d, 0 to 100 scale, 0 no effect, 100 complete control

| Structure (SMILES) | Plant response rating, Ragweed |
| --- | --- |
| O=C(Nc1ccccc1C(F)(F)F)C1C(=O)OCC1c1ccc(C(F)(F)F)cc1 (racemic) [Compound 9] | 0 |

Each compound was assayed on pigweed (Amaranthus retroflexus) (assay: Test A postemergence, pigweed). Conditions: 125 g ai/ha, visual rating after approx. 10 d, 0 to 100 scale, 0 no effect, 100 complete control.
Format: in vivo
Description: as §1

| Structure (SMILES) | Plant response rating, Pigweed |
| --- | --- |
| O=C(Nc1ccccc1C(F)(F)F)C1C(=O)OCC1c1ccc(C(F)(F)F)cc1 (racemic) [Compound 9] | 0 |

Same assay, conditions: 500 g ai/ha, visual rating after approx. 10 d, 0 to 100 scale, 0 no effect, 100 complete control

| Structure (SMILES) | Plant response rating, Pigweed |
| --- | --- |
| O=C(Nc1ccccc1C(F)(F)F)C1C(=O)OCC1c1ccc(C(F)(F)F)cc1 (racemic) [Compound 9] | 0 |

Each compound was assayed on blackgrass (Alopecurus myosuroides) (assay: Test A postemergence, blackgrass). Conditions: 125 g ai/ha, visual rating after approx. 10 d, 0 to 100 scale, 0 no effect, 100 complete control.
Format: in vivo
Description: as §1

| Structure (SMILES) | Plant response rating, Blackgrass |
| --- | --- |
| O=C(Nc1ccccc1C(F)(F)F)C1C(=O)OCC1c1ccc(C(F)(F)F)cc1 (racemic) [Compound 9] | 0 |

Same assay, conditions: 500 g ai/ha, visual rating after approx. 10 d, 0 to 100 scale, 0 no effect, 100 complete control

| Structure (SMILES) | Plant response rating, Blackgrass |
| --- | --- |
| O=C(Nc1ccccc1C(F)(F)F)C1C(=O)OCC1c1ccc(C(F)(F)F)cc1 (racemic) [Compound 9] | 0 |

What follows are compounds tested on sedge, umbrella (small-flower umbrella sedge, Cyperus difformis) (assay: Test B flooded paddy test, umbrella sedge). Conditions: 250 g ai/ha; applied to paddy water at 2-leaf stage; 13 to 15 d; scale 0 no effect to 100 complete control.
Format: in vivo
Procedure: as §2

| Structure (SMILES) | Plant response rating, Flood, Sedge, Umbrella |
| --- | --- |
| O=C(Nc1ccccc1C(F)(F)F)C1C(=O)OCC1c1ccc(C(F)(F)F)cc1 (racemic) [Compound 9] | 0 |

Same assay, conditions: 1000 g ai/ha; applied to paddy water at 2-leaf stage; 13 to 15 d; scale 0 no effect to 100 complete control

| Structure (SMILES) | Plant response rating, Flood, Sedge, Umbrella |
| --- | --- |
| O=C(Nc1ccccc1C(F)(F)F)C1C(=O)OCC1c1ccc(C(F)(F)F)cc1 (racemic) [Compound 9] | 0 |

The compounds below were run on ragweed (common ragweed, Ambrosia elatior) (assay: Test A postemergence, ragweed). Conditions: 125 g ai/ha, visual rating after approx. 10 d, 0 to 100 scale, 0 no effect, 100 complete control.
Format: in vivo
Description: as §1

| Structure (SMILES) | Plant response rating, Ragweed |
| --- | --- |
| O=C(Nc1ccccc1C(F)(F)F)C1C(=O)OCC1c1ccc(C(F)(F)F)cc1 (racemic) [Compound 9] | 0 |

Same assay, conditions: 500 g ai/ha, visual rating after approx. 10 d, 0 to 100 scale, 0 no effect, 100 complete control

| Structure (SMILES) | Plant response rating, Ragweed |
| --- | --- |
| O=C(Nc1ccccc1C(F)(F)F)C1C(=O)OCC1c1ccc(C(F)(F)F)cc1 (racemic) [Compound 9] | 0 |

Each compound was assayed on kochia (Kochia scoparia) (assay: Test A preemergence, kochia). Conditions: 125 g ai/ha, visual rating after approx. 10 d, 0 to 100 scale, 0 no effect, 100 complete control.
Format: in vivo
Description: as §1

| Structure (SMILES) | Plant response rating, Kochia |
| --- | --- |
| O=C(Nc1ccccc1C(F)(F)F)C1C(=O)OCC1c1ccc(C(F)(F)F)cc1 (racemic) [Compound 9] | 0 |

Same assay, conditions: 500 g ai/ha, visual rating after approx. 10 d, 0 to 100 scale, 0 no effect, 100 complete control

| Structure (SMILES) | Plant response rating, Kochia |
| --- | --- |
| O=C(Nc1ccccc1C(F)(F)F)C1C(=O)OCC1c1ccc(C(F)(F)F)cc1 (racemic) [Compound 9] | 20 |

Each compound was assayed on corn (Zea mays) (assay: Test A postemergence, corn). Conditions: 125 g ai/ha, visual rating after approx. 10 d, 0 to 100 scale, 0 no effect, 100 complete control.
Format: in vivo
Description: as §1

| Structure (SMILES) | Plant response rating, Corn |
| --- | --- |
| O=C(Nc1ccccc1C(F)(F)F)C1C(=O)OCC1c1ccc(C(F)(F)F)cc1 (racemic) [Compound 9] | 0 |

Same assay, conditions: 500 g ai/ha, visual rating after approx. 10 d, 0 to 100 scale, 0 no effect, 100 complete control

| Structure (SMILES) | Plant response rating, Corn |
| --- | --- |
| O=C(Nc1ccccc1C(F)(F)F)C1C(=O)OCC1c1ccc(C(F)(F)F)cc1 (racemic) [Compound 9] | 0 |

Source: patent US10582709B2, “Butyrolactones as herbicides” (FMC Corporation, priority 2015, dated 2020)
